According to ChEMBL document CHEMBL3217668, “3-Formylchromone based topoisomerase II inhibitors: discovery of potent leads” (Medchemcomm, 2013):
Calls of active or inactive are those of the source. The calls are words filed in the database; no cut-off is given here.

Key:
PC-3 = test: Cytotoxicity against human PC3 cells assessed as cell survival after 48 hrs by MTT assay; format: functional; details: PC-3, 48 h, read-out: LC50 (the source's name)
[1] = biological target: T1, DNA topoisomerase 2-alpha (Homo sapiens, UniProt P11388); test: Inhibition of human topoisomerase-2alpha-mediated kDNA decatenation at 100 uM after 30 mins by agarose gel electrophoresis
[2] = biological target: T1, DNA topoisomerase 2-alpha; test: Inhibition of human topoisomerase-2alpha-mediated supercoiled pRYG DNA relaxation at 100 uM after 30 mins by agarose gel electrophoresis
Nucleic Acid [3] = test: Binding affinity to Escherichia coli plasmid DNA assessed as intercalation at 100 uM after 20 mins by agarose gel electrophoresis; format: nucleic-acid assay
[4] = biological target: T1, DNA topoisomerase 2-alpha; test: Inhibition of human topoisomerase-2alpha-mediated kDNA decatenation after 30 mins by agarose gel electrophoresis
Nucleic Acid [5] = test: Binding affinity to Escherichia coli plasmid DNA assessed as intercalation at 1 ug/mL after 20 mins by agarose gel electrophoresis; format: nucleic-acid assay

T1 sequence (P11388 whole entry): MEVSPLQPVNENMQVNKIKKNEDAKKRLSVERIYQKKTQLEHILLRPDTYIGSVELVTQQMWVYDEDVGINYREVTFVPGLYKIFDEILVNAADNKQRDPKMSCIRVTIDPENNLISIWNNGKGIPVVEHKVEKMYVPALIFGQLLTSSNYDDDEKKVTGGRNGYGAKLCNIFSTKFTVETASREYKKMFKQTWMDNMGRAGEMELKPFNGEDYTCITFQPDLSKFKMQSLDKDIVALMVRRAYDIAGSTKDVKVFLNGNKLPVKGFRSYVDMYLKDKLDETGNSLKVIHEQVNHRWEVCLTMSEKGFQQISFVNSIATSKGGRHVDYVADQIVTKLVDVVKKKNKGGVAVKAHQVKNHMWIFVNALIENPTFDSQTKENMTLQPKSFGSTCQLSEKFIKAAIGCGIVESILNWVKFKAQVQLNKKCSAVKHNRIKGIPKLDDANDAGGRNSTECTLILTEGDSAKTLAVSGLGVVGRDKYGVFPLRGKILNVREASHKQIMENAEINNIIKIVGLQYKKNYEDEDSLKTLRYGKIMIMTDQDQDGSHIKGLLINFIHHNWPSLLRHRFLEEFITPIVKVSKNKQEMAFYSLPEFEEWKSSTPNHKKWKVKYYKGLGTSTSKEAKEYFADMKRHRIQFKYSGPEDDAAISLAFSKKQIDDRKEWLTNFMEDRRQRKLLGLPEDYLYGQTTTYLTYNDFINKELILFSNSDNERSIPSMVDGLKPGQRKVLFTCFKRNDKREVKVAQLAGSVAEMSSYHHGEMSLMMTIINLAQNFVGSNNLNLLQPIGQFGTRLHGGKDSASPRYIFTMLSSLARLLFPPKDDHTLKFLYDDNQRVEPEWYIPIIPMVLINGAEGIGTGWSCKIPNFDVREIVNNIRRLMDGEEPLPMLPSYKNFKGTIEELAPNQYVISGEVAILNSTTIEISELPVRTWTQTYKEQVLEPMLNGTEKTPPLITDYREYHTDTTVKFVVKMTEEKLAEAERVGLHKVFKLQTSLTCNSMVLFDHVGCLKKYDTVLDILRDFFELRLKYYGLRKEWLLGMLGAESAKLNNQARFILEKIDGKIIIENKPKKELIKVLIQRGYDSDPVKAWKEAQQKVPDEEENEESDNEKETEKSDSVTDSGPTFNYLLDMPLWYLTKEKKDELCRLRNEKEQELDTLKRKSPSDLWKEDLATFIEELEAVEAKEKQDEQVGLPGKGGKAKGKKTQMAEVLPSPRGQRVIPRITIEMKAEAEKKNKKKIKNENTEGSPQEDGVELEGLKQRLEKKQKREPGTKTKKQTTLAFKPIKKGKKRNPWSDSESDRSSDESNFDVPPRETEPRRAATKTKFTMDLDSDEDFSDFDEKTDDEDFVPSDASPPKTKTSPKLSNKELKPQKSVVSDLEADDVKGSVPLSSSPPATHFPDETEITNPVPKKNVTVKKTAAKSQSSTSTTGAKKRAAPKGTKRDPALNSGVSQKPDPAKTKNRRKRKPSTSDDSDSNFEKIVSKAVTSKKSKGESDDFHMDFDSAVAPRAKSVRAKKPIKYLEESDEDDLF

O=Cc1c(Nc2ccccc2)oc2cc(Cl)ccc2c1=O
CC50 (PC-3): 2.5 µM | inhibition [1]: Active | inhibition [2]: Active | Activity (Nucleic Acid [3]): inactive

CN(c1ccccc1)c1oc2ccccc2c(=O)c1C=O
IC50 [4]: 67.9 µM | CC50 (PC-3): 0.5 µM | inhibition [2]: Active | Activity (Nucleic Acid [3]): inactive

O=Cc1coc2ccc(Cl)cc2c1=O
CC50 (PC-3): 5.7 µM | inhibition [1]: Active | inhibition [2]: Active | Activity (Nucleic Acid [3]): inactive

CN(c1ccccc1)c1oc2ccc(Cl)cc2c(=O)c1C=O
CC50 (PC-3): 2.1 µM | inhibition [1]: Active | inhibition [2]: Active | Activity (Nucleic Acid [3]): inactive

CC[n+]1c(-c2ccccc2)c2cc(N)ccc2c2ccc(N)cc21
Activity (Nucleic Acid [5]): Active

O=Cc1c(Nc2ccccc2)oc2ccc(F)cc2c1=O
CC50 (PC-3): 8.6 µM | inhibition [1]: Active | inhibition [2]: Active | Activity (Nucleic Acid [3]): inactive

O=Cc1c(Nc2ccccc2)oc2ccccc2c1=O
CC50 (PC-3): 8.2 µM | inhibition [1]: Active | inhibition [2]: Active | Activity (Nucleic Acid [3]): inactive

COc1cc([C@@H]2c3cc4c(cc3[C@@H](O[C@@H]3O[C@@H]5CO[C@@H](C)O[C@H]5[C@H](O)[C@H]3O)[C@H]3COC(=O)[C@H]23)OCO4)cc(OC)c1O [ETOPOSIDE]
CC50 (PC-3): 7.5 µM | inhibition [1]: Active | inhibition [2]: Active | Activity (Nucleic Acid [3]): inactive

O=Cc1c(Nc2ccccc2)oc2ccc(Cl)cc2c1=O
CC50 (PC-3): 8.3 µM | inhibition [1]: Active | inhibition [2]: Active | Activity (Nucleic Acid [3]): inactive
